# Assay results reported in ChEMBL document CHEMBL1201862, “PubChem BioAssay data set” (2004).
#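 Results reflect a 48-hour exposure of cells in 96-well plates to compound at five concentrations. GI50 is the concentration that inhibits growth by half.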 Activity calls are given as the source filed them. No stated cut-off is given here; in the data, active = GI50 up to about 1.1 µM and inactive = higher.
# Legend:
# Assay in all cases: growth of human tumour cells (NCI), 48 h
# SNB-78 = test system: SNB-78
# XF498 = test system: XF498
# RXF 631 = test system: RXF 631
# HOP-18 = test system: HOP-18
# DMS-114 = test system: DMS-114
# M19-MEL = test system: M19-MEL
# DLD-1 = test system: DLD-1
# DMS-273 = test system: DMS-273
# LXFL 529 = test system: LXFL 529
SMILES,GI50 (SNB-78),GI50 (XF498),GI50 (RXF 631),GI50 (HOP-18),GI50 (DMS-114),GI50 (M19-MEL),GI50 (DLD-1),GI50 (DMS-273),GI50 (LXFL 529)
COc1cc2c(cc1OC)[C@@H](Nc1ccc(F)cc1)C1COC(=O)[C@@H]1C2c1cc(OC)c(O)c(OC)c1 (stereo not given in full),> 20.4 µM (inactive),3 µM (inactive),1.73 µM (inactive),5.35 µM (inactive),1.15 µM (inactive),5.08 µM (inactive),3.13 µM (inactive),0.0832 µM (active),19.6 µM (inactive)
COc1ccc2c(c1)c(=O)c1c(NCCCN(C)C)ccc3ncn2c31,7.48 µM (inactive),5.35 µM (inactive),,11.2 µM (inactive),10.6 µM (inactive),9.08 µM (inactive),1.14 µM (inactive),1.07 µM (active),3.41 µM (inactive)
COc1cccc2c1C(=O)OC2c1cccc2ccccc12 (stereo not given),> 100 µM (inactive),34.8 µM (inactive),,> 85.5 µM (inactive),> 100 µM (inactive),> 100 µM (inactive),> 100 µM (inactive),> 100 µM (inactive),> 100 µM (inactive)
CC/C(CC(=O)CCC(=O)Nc1c(C)cccc1C)=N\NC(=O)NN,> 100 µM (inactive),,> 100 µM (inactive),> 100 µM (inactive),,> 100 µM (inactive),> 100 µM (inactive),,> 100 µM (inactive)
COc1cccc2nc3cc(C)c(C)cc3nc12,> 100 µM (inactive),> 100 µM (inactive),> 100 µM (inactive),> 100 µM (inactive),> 100 µM (inactive),> 100 µM (inactive),79.1 µM (inactive),> 100 µM (inactive),> 100 µM (inactive)
CC1=C2C(=O)C3[C@@H](CCC4=CC(=O)CC[C@@]43C)C2CC[C@]12O[C@@H]1C[C@H](C)CN[C@H]1[C@H]2C (stereo not given in full),,12.6 µM (inactive),,49.3 µM (inactive),15.3 µM (inactive),36.2 µM (inactive),> 100 µM (inactive),17.7 µM (inactive),34.5 µM (inactive)
COC(=O)CCC1CCc2c(OC)ccc(O)c2C1=O (stereo not given),> 100 µM (inactive),,> 100 µM (inactive),,,> 100 µM (inactive),> 100 µM (inactive),> 100 µM (inactive),> 100 µM (inactive)
CS/C(c1ccccc1)=[N+](\[O-])Cc1ccccc1,> 100 µM (inactive),> 100 µM (inactive),,> 100 µM (inactive),45.9 µM (inactive),> 100 µM (inactive),> 100 µM (inactive),,> 100 µM (inactive)
CC(=O)OC1C(O)C(C)OC(OC2C(OC(=O)C3CCC4C(C3)OC3(CC(OC(=O)/C=C/c5ccccc5)C(C)CO3)C43CO3)OC(C)C(O)C2OC(C)=O)C1O (stereo not given),0.056 µM (active),0.0357 µM (active),,0.0906 µM (active),0.0251 µM (active),0.0174 µM (active),0.38 µM (active),0.0259 µM (active),
COC(=O)c1ccccc1NC(=O)C(=O)CC(=O)c1ccccc1NC1=CC(=O)C(=O)c2ccccc21,7.66 µM (inactive),15.6 µM (inactive),26.5 µM (inactive),7.59 µM (inactive),1.71 µM (inactive),2.02 µM (inactive),4.57 µM (inactive),10.7 µM (inactive),5.09 µM (inactive)
Cc1cccc(C2SCc3nc4ccccc4n32)c1 (stereo not given),27.5 µM (inactive),,,< 0.01 µM (active),10.9 µM (inactive),24 µM (inactive),25.2 µM (inactive),,25.2 µM (inactive)
CC1=CC(=O)CCC2(C)C1CC[C@@H]2OC=O (stereo not given in full),> 100 µM (inactive),> 100 µM (inactive),> 100 µM (inactive),> 100 µM (inactive),> 100 µM (inactive),> 100 µM (inactive),> 100 µM (inactive),> 100 µM (inactive),> 100 µM (inactive)
O=NN(CCCl)C(=O)NCc1ccc[n+]([O-])c1,> 100 µM (inactive),> 100 µM (inactive),> 100 µM (inactive),,> 100 µM (inactive),> 100 µM (inactive),> 100 µM (inactive),,> 100 µM (inactive)
CN(C)C(=O)Nc1c([N+](=O)[O-])cc(C(F)(F)F)cc1[N+](=O)[O-],33.5 µM (inactive),16.8 µM (inactive),,,,,,43.8 µM (inactive),40.9 µM (inactive)
CC1OC(OC2C(OC(=O)[C@]34CCC(C)(C)CC3C3=CCC5[C@@]6(C)C[C@H](O)[C@H](OC7OC(CO)C(O)C(O)C7N)[C@@](C)(C(=O)O)C6CC[C@@]5(C)C3(C)CC4)OCC(O)C2O)C(O)C(O)C1OC1OCC(O)C(O)C1O (stereo not given in full),> 100 µM (inactive),,,> 100 µM (inactive),> 100 µM (inactive),> 100 µM (inactive),> 100 µM (inactive),> 100 µM (inactive),
COc1ccc(-c2cc3ccccc3[nH]c2=O)cc1OC,> 100 µM (inactive),> 100 µM (inactive),,> 100 µM (inactive),,> 100 µM (inactive),> 100 µM (inactive),> 100 µM (inactive),> 100 µM (inactive)
COc1ccc([C@H]2[C@@H]3CCc4ccccc4C3=NN2C(N)=S)cc1OC,> 100 µM (inactive),> 100 µM (inactive),,> 100 µM (inactive),28.8 µM (inactive),34.3 µM (inactive),53 µM (inactive),,24.2 µM (inactive)
CCC1(Cl)C(=O)NC(=O)N(C2CC(O)C(CO)O2)C1N=[N+]=[N-] (stereo not given),> 100 µM (inactive),> 100 µM (inactive),> 100 µM (inactive),,80.4 µM (inactive),> 100 µM (inactive),> 100 µM (inactive),> 100 µM (inactive),> 100 µM (inactive)
CCOC(=O)CN(Cc1ccccc1)Cc1c(C(=O)c2ccccc2)c2ccccc2n1C(=O)c1ccccc1,> 100 µM (inactive),73.1 µM (inactive),,,> 100 µM (inactive),> 100 µM (inactive),> 100 µM (inactive),> 100 µM (inactive),8.57 µM (inactive)
CC(C)C(NCc1c2ccccc2[n+](C)c2ccccc12)C(=O)O (stereo not given),5.73 µM (inactive),4.99 µM (inactive),4.74 µM (inactive),5.78 µM (inactive),2.28 µM (inactive),7.33 µM (inactive),2.39 µM (inactive),3.25 µM (inactive),3.53 µM (inactive)
O=C(NC1=C(Cl)C(=O)c2ccccc2C1=O)C(=O)C(C(=O)c1ccc2ccccc2c1)C1OC(=O)c2ccccc21 (stereo not given),3.76 µM (inactive),,,,2.36 µM (inactive),0.309 µM (active),4.31 µM (inactive),,4.43 µM (inactive)
Cc1cn(C2CC3C(COCN3O)O2)c(=O)[nH]c1=O (stereo not given),,> 100 µM (inactive),,,> 100 µM (inactive),> 100 µM (inactive),,> 100 µM (inactive),> 100 µM (inactive)
COC(=O)c1cc2c3ccccc3n(C(C)=O)c2cn1,> 100 µM (inactive),38.6 µM (inactive),77.6 µM (inactive),44.9 µM (inactive),> 100 µM (inactive),> 100 µM (inactive),> 100 µM (inactive),> 100 µM (inactive),66.4 µM (inactive)
